Results as given in the supplement of paper PMC10307832.

Legend:
Experiment in all cases: relative viability (nuclei count vs DMSO), 5 days (fraction); higher = more cells survive
[1] = compound: O=C(Nc1cccc(C(F)(F)F)c1)Nc1cc(S(=O)(=O)NC2CC2)ccc1-c1ccsc1 [AGI-6780] + CC(=O)Nc1cccc(-n2c(=O)n(C3CC3)c(=O)c3c(Nc4ccc(I)cc4F)n(C)c(=O)c(C)c32)c1 [Trametinib] (partner 0.02 µM)
How it was run: (§1)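 A single step with final 0.05% Triton X-100, 1% formaldehyde and 1 ug/ml Hoechst fixed the cells and stained nuclei 5 days after treatment. Lung cancer cell lines in 1536-well plates had been treated by pin tool the day after seeding with one drug alone or a fixed anchor-drug dose plus five library-drug doses (not always all listed) in √10 steps, and nuclei were counted on 4× images. Relative viability is the ratio of nuclei in treated wells to nuclei in vehicle wells, taken as the median of duplicate plates.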

[2] = compound: O=C(Nc1cccc(C(F)(F)F)c1)Nc1cc(S(=O)(=O)NC2CC2)ccc1-c1ccsc1 [AGI-6780] + CC(C)C[C@H](NC(=O)[C@H](Cc1ccccc1)NC(=O)c1cnccn1)B(O)O [Bortezomib] (partner 0.002 µM)
How it was run: as §1

[3] = compound: O=C(Nc1cccc(C(F)(F)F)c1)Nc1cc(S(=O)(=O)NC2CC2)ccc1-c1ccsc1 [AGI-6780] + CS(=O)(=O)N1CCN(Cc2cc3nc(-c4cccc5[nH]ncc45)nc(N4CCOCC4)c3s2)CC1 [Pictilisib] (partner 1 µM)
How it was run: as §1

[4] = compound: O=C(Nc1cccc(C(F)(F)F)c1)Nc1cc(S(=O)(=O)NC2CC2)ccc1-c1ccsc1 [AGI-6780] + O=C(c1cc(Cc2n[nH]c(=O)c3ccccc23)ccc1F)N1CCN(C(=O)C2CC2)CC1 [Olaparib] (partner 8 µM)
How it was run: as §1

Cell Line	relative viability ([1]; first compound 0.08 µM)	relative viability ([1]; first compound 0.253 µM)	relative viability ([1]; first compound 0.8 µM)	relative viability ([1]; first compound 2.53 µM)	relative viability ([1]; first compound 8 µM)	relative viability ([2]; first compound 0.08 µM)	relative viability ([2]; first compound 0.253 µM)	relative viability ([2]; first compound 0.8 µM)	relative viability ([2]; first compound 2.53 µM)	relative viability ([2]; first compound 8 µM)	relative viability ([3]; first compound 0.08 µM)	relative viability ([3]; first compound 0.253 µM)	relative viability ([3]; first compound 0.8 µM)	relative viability ([3]; first compound 2.53 µM)	relative viability ([3]; first compound 8 µM)	relative viability ([4]; first compound 0.08 µM)	relative viability ([4]; first compound 0.253 µM)	relative viability ([4]; first compound 0.8 µM)	relative viability ([4]; first compound 2.53 µM)	relative viability ([4]; first compound 8 µM)
NCI-H1650	0.559	0.555	0.653	0.623	0.757	0.181	0.196	0.216	0.206	0.183	0.566	0.555	0.678	0.568	0.586	0.884	0.774	0.934	0.689	0.791
NCI-H1651	0.816	0.82	0.833	0.73	0.839	0.831	0.988	1	0.893	0.957	0.547	0.673	0.495	0.509	0.511	0.187	0.181	0.169	0.169	0.18
NCI-H1666	0.936	0.885	0.836	0.776	0.93	0.819	0.838	0.782	–	0.857	0.332	0.472	0.421	–	0.567	0.703	0.714	0.734	0.766	0.75
NCI-H1734	0.74	0.646	0.63	0.474	0.758	1.08	0.968	1.03	–	0.935	0.528	0.479	0.419	–	0.447	0.722	0.633	0.654	0.492	0.574
NCI-H1755	0.721	0.775	0.723	0.737	0.802	1.01	0.98	0.967	0.83	1.01	0.445	0.467	0.408	0.368	0.441	0.912	0.868	0.852	0.766	0.83
NCI-H1792	0.532	0.332	0.611	–	0.483	0.834	0.917	1.01	0.867	0.862	0.302	0.279	0.281	0.245	0.242	0.266	0.404	0.576	–	0.292
NCI-H1915	0.314	0.304	0.298	0.246	0.274	1.02	1	0.912	0.955	0.972	1.02	1.04	0.976	0.855	1.03	0.25	0.292	0.258	0.208	0.26
NCI-H1975	0.369	0.348	0.29	0.207	0.322	0.337	0.303	0.34	0.331	0.351	0.315	0.3	0.31	0.244	0.26	0.78	0.731	0.804	0.722	0.806
NCI-H1993	0.639	0.562	0.535	–	0.604	1.09	1.13	1.25	0.764	1.12	0.0371	0.802	0.854	0.661	0.82	0.831	1.11	1.13	–	1.09
NCI-H2009	0.264	0.272	0.243	0.202	0.225	1.03	1.04	0.969	1.07	1.12	0.731	0.884	0.911	0.737	0.867	0.643	0.745	0.67	0.644	0.625
NCI-H2023	0.691	0.527	0.497	0.5	0.526	0.994	1.1	1.09	0.92	1.06	0.284	0.279	0.271	0.181	0.229	0.5	0.444	0.437	0.374	0.492
NCI-H2085	0.651	0.581	0.526	0.666	0.735	1.04	1.09	1.02	1.08	1.13	0.468	0.541	0.48	0.404	0.491	0.823	0.739	0.738	0.849	0.761
NCI-H2087	0.253	0.183	0.218	0.213	0.194	0.824	0.958	0.77	0.997	0.879	0.787	0.914	0.879	0.644	0.773	0.674	0.563	0.524	0.53	0.637
NCI-H2126	0.613	0.601	0.507	0.479	0.566	1.17	1.07	1.11	1.09	1.09	0.484	0.573	0.496	0.44	0.493	0.981	0.895	0.914	0.84	0.959
NCI-H2228	0.447	0.508	0.505	0.307	0.607	1.11	1.07	0.811	0.896	0.886	0.378	0.532	0.358	0.133	0.386	0.686	0.769	0.591	0.41	0.736
NCI-H2347	0.276	0.289	0.278	0.287	0.274	0.557	0.947	0.858	1.23	1.19	0.747	0.648	0.591	0.553	0.897	0.564	0.561	0.569	0.597	0.592
